Results reported in patent publication US9695154B2, “Heteroaryl inhibitors of sumo activating enzyme” (MILLENNIUM PHARMACEUTICALS, INC., priority 2013, dated 2017).

Target: T1, recombinant human SAE enzyme (Homo sapiens, UniProt Q9UBT2)
T1 sequence (Q9UBT2 1-640): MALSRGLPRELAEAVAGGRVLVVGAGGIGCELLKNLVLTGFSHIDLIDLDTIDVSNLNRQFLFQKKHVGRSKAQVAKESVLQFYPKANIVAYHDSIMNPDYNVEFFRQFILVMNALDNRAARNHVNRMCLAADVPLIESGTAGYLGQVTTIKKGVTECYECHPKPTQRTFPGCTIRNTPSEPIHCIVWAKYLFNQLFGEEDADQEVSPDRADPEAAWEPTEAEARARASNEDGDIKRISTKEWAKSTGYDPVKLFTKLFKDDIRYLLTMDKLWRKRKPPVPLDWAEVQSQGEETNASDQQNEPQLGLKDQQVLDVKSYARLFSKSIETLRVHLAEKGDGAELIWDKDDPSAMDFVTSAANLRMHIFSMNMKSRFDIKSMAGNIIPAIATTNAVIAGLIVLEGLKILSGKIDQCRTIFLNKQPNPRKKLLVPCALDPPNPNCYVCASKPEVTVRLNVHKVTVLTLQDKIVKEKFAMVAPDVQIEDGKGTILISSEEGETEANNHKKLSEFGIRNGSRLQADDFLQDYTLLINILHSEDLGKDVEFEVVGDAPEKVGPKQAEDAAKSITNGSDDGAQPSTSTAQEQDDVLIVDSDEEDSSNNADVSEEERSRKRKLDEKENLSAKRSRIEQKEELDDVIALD
T1 sequence (Q9UBE0 1-346 partner): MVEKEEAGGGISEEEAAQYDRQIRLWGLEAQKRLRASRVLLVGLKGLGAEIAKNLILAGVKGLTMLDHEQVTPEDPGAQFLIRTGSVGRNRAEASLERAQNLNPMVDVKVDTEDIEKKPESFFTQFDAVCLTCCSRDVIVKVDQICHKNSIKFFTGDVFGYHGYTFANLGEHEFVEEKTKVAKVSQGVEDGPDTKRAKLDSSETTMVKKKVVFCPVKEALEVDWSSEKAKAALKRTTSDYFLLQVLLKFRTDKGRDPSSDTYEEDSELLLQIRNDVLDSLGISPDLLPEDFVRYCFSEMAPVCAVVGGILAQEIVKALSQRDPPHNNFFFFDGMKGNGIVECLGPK
Assay: SAE HTRF Enzyme Assay
Assay type: biochemical
Conditions: for IC50: class symbols A-C; for inhibition at 0.111 µM: compound concentration 0.111 μM, read-out: Percent Inhibition
Summary of the method: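 Recombinant human SAE (0.11 nM) transferred Sumo-Flag (0.125 μM) to Ubc9-GST (0.01 μM) with 0.5 μM ATP in HEPES pH 7.5, MgCl2, GSH, BSA; 105 min at 24° C. EDTA stop, Eu-cryptate anti-Flag and XL-APC anti-GST added, 2 h, then HTRF read. Values given as % inhibition at one concentration or IC50.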

NS(=O)(=O)OC[C@H]1C[C@@H](Nc2ncncc2C(=O)c2ccn(Cc3ccc(Cl)o3)n2)C[C@@H]1O [Compound I-180, [(1R,2S,4R)-4-{[5-({1-[(5-chloro-2-furyl)methyl]-1H-pyrazol-3-yl}carbonyl)pyrimidin-4-yl]amino}-2-hydroxycyclopentyl]methyl sulfamate]
IC50: < 10 nM | inhibition at 0.111 µM: 99%

NS(=O)(=O)OC[C@H]1C[C@@H](Nc2ncncc2C(=O)c2ccn(Cc3cc(C(F)(F)F)ccc3Cl)n2)[C@@H](F)[C@@H]1O [Compound I-181, [(1R,2R,3R,4R)-4-{[5-({1-[2-chloro-5-(trifluoromethyl)benzyl]-1H-pyrazol-3-yl}carbonyl)pyrimidin-4-yl]amino}-3-fluoro-2-hydroxycyclopentyl]methyl sulfamate]
IC50: < 10 nM | inhibition at 0.111 µM: 94%

NS(=O)(=O)OC[C@H]1C[C@@H](Nc2ncncc2C(=O)c2ccn(Cc3ccccc3C(F)(F)F)n2)[C@H](O)[C@@H]1O [Compound I-182, [(1R,2R,3S,4R)-2,3-dihydroxy-4-{[5-({1-[2-(trifluoromethyl)benzy1]-1H-pyrazol-3-yl}carbonyl)pyrimidin-4-yl]amino}cyclopentyl]methyl sulfamate]
IC50: < 10 nM | inhibition at 0.111 µM: 96%

NS(=O)(=O)OC[C@H]1C[C@@H](Nc2ncncc2C(=O)c2ccn(Cc3ccc(C(F)(F)F)s3)n2)C[C@@H]1O [Compound I-183, [(1R,2S,4R)-2-hydroxy-4-({5-[(1-{[5-(trifluoromethyl)-2-thienyl]methyl}-1H-pyrazol-3-yl)carbonyl]pyrimidin-4-yl}amino)cyclopentyl]methyl sulfamate]
IC50: < 10 nM | inhibition at 0.111 µM: 96%

NS(=O)(=O)OC[C@H]1C[C@@H](Nc2ncncc2C(=O)c2cc(Cl)n(Cc3cccc(C(F)(F)F)c3)c2)[C@@H](F)[C@@H]1O [Compound I-184, [(1R,2R,3R,4R)-4-{[5-({5-chloro-1-[3-(trifluoromethyl)benzyl]-1H-pyrrol-3-yl}carbonyl)pyrimidin-4-yl]amino}-3-fluoro-2-hydroxycyclopentyl]methyl sulfamate]
IC50: < 10 nM | inhibition at 0.111 µM: 97%

NS(=O)(=O)OC[C@H]1C[C@@H](Nc2ncncc2C(=O)c2ccn(Cc3ccc(F)cc3Cl)n2)C[C@@H]1O [Compound I-185, {(1R,2S,4R)-4-[(5-{[1-(2-chloro-4-fluorobenzyl)-1H-pyrazol-3-yl]carbonyl}pyrimidin-4-yl)amino]-2-hydroxycyclopentyl}methyl sulfamate]
IC50: < 10 nM | inhibition at 0.111 µM: 91%

Cc1cc(C(=O)c2cncnc2N[C@@H]2C[C@H](COS(N)(=O)=O)[C@@H](O)[C@@H]2F)nn1Cc1cccc(Br)c1 [Compound I-186, {(1R,2R,3R,4R)-4-[(5-{[1-(3-Bromobenzyl)-5-methyl-1H-pyrazol-3-yl]carbonyl}pyrimidin-4-yl)amino]-3-fluoro-2-hydroxycyclopentyl}methyl sulfamate]
IC50: < 10 nM | inhibition at 0.111 µM: > 99%

CCc1cc(C(=O)c2cncnc2N[C@@H]2C[C@H](COS(N)(=O)=O)[C@@H](O)[C@@H]2F)cn1Cc1cccc(Br)c1 [Compound I-187, {(1R,2R,3R,4R)-4-[(5-{[1-(3-Bromobenzyl)-5-ethyl-1H-pyrrol-3-yl]carbonyl}pyrimidin-4-yl)amino]-3-fluoro-2-hydroxycyclopentyl}methyl sulfamate]
IC50: < 10 nM | inhibition at 0.111 µM: 99%

COc1cccc(Cn2ccc(C(=O)c3cncnc3N[C@@H]3C[C@H](COS(N)(=O)=O)[C@@H](O)[C@@H]3F)c2)n1 [Compound I-188, [(1R,2R,3R,4R)-3-fluoro-2-hydroxy-4-{[5-({1-[(6-methoxypyridin-2-yl)methyl]-1H-pyrrol-3-yl}carbonyl)pyrimidin-4-yl]amino}cyclopentyl]methyl sulfamate]
IC50: < 10 nM | inhibition at 0.111 µM: 98%

NS(=O)(=O)OC[C@H]1C[C@@H](Nc2ncncc2C(=O)c2ccn(Cc3ccc(Cl)s3)c2)[C@@H](F)[C@@H]1O [Compound I-189, [(1R,2R,3R,4R)-4-{[5-({1-[(5-chloro-2-thienyl)methyl]-1H-pyrrol-3-yl}carbonyl)pyrimidin-4-yl]amino}-3-fluoro-2-hydroxycyclopentyl]methyl sulfamate]
IC50: < 10 nM | inhibition at 0.111 µM: 100%

NS(=O)(=O)OC[C@H]1C[C@@H](Nc2ncncc2C(=O)c2ccn(Cc3ccc(F)c(F)c3)n2)[C@@H](O)[C@@H]1O [Compound I-190, {(1R,2R,3R,4R)-4-[(5-{[1-(3,4-difluorobenzyl)-1H-pyrazol-3-yl]carbonyl}pyrimidin-4-yl)amino]-2,3-dihydroxycyclopentyl}methyl sulfamate]
IC50: < 10 nM | inhibition at 0.111 µM: 98%

NS(=O)(=O)OC[C@H]1C[C@@H](Nc2ncncc2C(=O)c2ccn(Cc3ccc(Cl)cc3F)n2)C[C@@H]1O [Compound I-191, {(1R,2S,4R)-4-[(5-{[1-(4-chloro-2-fluorobenzyl)-1H-pyrazol-3-yl]carbonyl}pyrimidin-4-yl)amino]-2-hydroxycyclopentyl}methyl sulfamate]
IC50: < 10 nM | inhibition at 0.111 µM: 92%

NS(=O)(=O)OC[C@H]1C[C@@H](Nc2ncncc2C(=O)c2ccn(Cc3ccccc3Cl)n2)[C@H](O)[C@@H]1O [Compound I-193, ((1R,2R,3S,4R)-4-((5-(1-(2-Chlorobenzyl)-1H-pyrazole-3-carbonyl)pyrimidin-4-yl)amino)-2,3-dihydroxycyclopentyl)methyl sulfamate]
IC50: < 10 nM | inhibition at 0.111 µM: 99%

NS(=O)(=O)OC[C@H]1C[C@@H](Nc2ncncc2C(=O)c2ccn(Cc3ccc(F)cc3Cl)n2)[C@H](O)[C@@H]1O [Compound I-194, {(1R,2R,3S,4R)-4-[(5-{[1-(2-chloro-4-fluorobenzyl)-1H-pyrazol-3-yl]carbonyl}pyrimidin-4-yl)amino]-2,3-dihydroxycyclopentyl}methyl sulfamate]
IC50: < 10 nM | inhibition at 0.111 µM: 100%

CC#CCn1ccc(C(=O)c2cncnc2N[C@@H]2C[C@H](COS(N)(=O)=O)[C@@H](O)[C@@H]2F)c1 [Compound I-195, {(1R,2R,3R,4R)-4-[(5-{[1-(but-2-yn-1-yl)-1H-pyrrol-3-yl]carbonyl}pyrimidin-4-yl)amino]-3-fluoro-2-hydroxycyclopentyl}methyl sulfamate]
IC50: 10 to 100 nM | inhibition at 0.111 µM: 90%

NS(=O)(=O)OC[C@H]1C[C@@H](Nc2ncncc2C(=O)c2ccn(C#Cc3ccccc3)c2)C[C@@H]1O [Compound I-196, {(1R,2S,4R)-2-Hydroxy-4-[(5-{[1-(phenylethynyl)-1H-pyrrol-3-yl]carbonyl}pyrimidin-4-yl)amino]cyclopentyl}methyl sulfamate]
IC50: 100 to 1000 nM | inhibition at 0.111 µM: 33%

Cc1cc(C(=O)c2cncnc2N[C@@H]2C[C@H](COS(N)(=O)=O)[C@@H](O)[C@@H]2F)nn1Cc1ccc(C(F)(F)F)o1 [Compound I-197, [(1R,2R,3R,4R)-3-Fluoro-2-hydroxy-4-({5-[(5-methyl-1-{[5-(trifluoromethyl)-2-furyl]methyl}-1H-pyrazol-3-yl)carbonyl]pyrimidin-4-yl}amino)cyclopentyl]methyl sulfamate]
IC50: < 10 nM | inhibition at 0.111 µM: 99%
